Test results taken from patent publication US9737596B2, “Vaccine for the prevention of breast cancer recurrence” (The Henry M. Jackson Foundation for the Advancement of …, priority 2008, dated 2017).

Key:
HLA-A2 molecule = details: cited from earlier work
[1] = tested on: disease-free, high risk breast cancer patients; assay: Phase II trial: breast cancer recurrence; assay type: in vivo, human; details: median follow up of 17.9 months, preliminary data
Method: (§1) Disease-free, high risk breast cancer patients who have completed standard adjuvant therapy were enrolled at multiple sites and randomized to receive six monthly inoculations of either 500 mcg of GP2 with 125 mcg of GM-CSF (Peptide group; PG) or 125 mcg of GM-CSF alone (adjuvant group; AG). Toxicity was assessed after each inoculation. Immunologic response was monitored by measured delayed type hypersensitivity reactions (DTH) and an HLA-A2:Immunoglobulin dimer assay to detect GP2-specific CD8^+ T-lymphocytes. Patients were monitored clinically, radiographically, and pathologically for recurrence.

[2] = tested on: disease-free, high risk breast cancer patients; assay: Phase II trial: DTH reaction to GP2; assay type: in vivo, human
Method: as §1

[3] = tested on: GP2-specific CD8+ T-lymphocytes; assay: Phase II trial: HLA-A2:Immunoglobulin dimer assay, GP2-specific CD8+ T-lymphocytes; assay type: in vivo, human
Method: as §1

[4] = tested on: disease-free, high risk breast cancer patients; assay: Phase II trial: toxicity; assay type: in vivo, human; details: six monthly inoculations
Method: as §1

Substance	binding affinity for the HLA-A2 molecule (HLA-A2 molecule)	recurrence rate [1] [%]	patients with significant immunity (SI) by DTH (reaction larger than 1 cm) ([2]; post-vaccination) [%]	Median DTH reaction to GP2 ([2]; post-vaccination (after completion of primary series)) [cm]	Median DTH reaction to GP2 ([2]; pre-vaccination) [cm]	% GP2-specific CD8+ lymphocytes ([3]; 6 months after completion of the primary series) [%]	% GP2-specific CD8+ lymphocytes ([3]; baseline) [%]	grade 3-5 systemic toxicities [4]	grade 4-5 local toxicities [4]
IISAVVGIL (listed as Homo sapiens) [GP2, nine amino acid peptide from the transmembrane portion of HER2/neu, amino acids 654-662]	relatively poor binding affinity	–	–	–	–	–	–	–	–
GM-CSF: granulocyte macrophage-colony stimulating factor, 125 mcg alone, control adjuvant group of phase II trial	–	13	45.5	0.5±3.3	0.0±1.0	1.41±0.49	1.08±0.16	no grade 3-5 systemic toxicities	no grade 4-5 local toxicities
